Reference: US6482771B2, “Synergistic herbicidal methods and compositions” (BASF Aktiengesellschaft, priority 2000, dated 2002)

Key:
Hordeum leporinum = experiment: Field plot evaluation of biomass reduction and seedhead suppression in Hordeum leporinum (wild barley), post-emergence in an imidazolinone-tolerant crop; format: in vivo; conditions: 28 g/ha; for Seed Head Red. Observed: seedhead count vs untreated plot; for Bio. Red. Observed: visual rating vs untreated plots, average of 4 replicates
Procedure: (§1) In the following examples, synergism is determined by the Colby (Colby, S. R., Weeds, 1967(15), p. 20-22) method, i.e. the expected (or predicted) response of the combination is calculated by taking the product of the observed response for each individual component of the combination when applied alone divided by 100 and subtracting this value from the sum of the observed response for each component when applied alone. Synergism of the combination is then determined by comparing the observed response of the combination to the expected (or predicted) response as calculated from the observed responses of each individual component alone. If the observed response of the combination is greater than the expected (or predicted) response then the combination is said to be synergistic.
(§2) All trials employ standard accepted weed science procedures. Applications are made to 2×10M plots with a propane gas-powered small plot boomspray applicator. Test design is a modified randomized complete block design with four replications. Applications are made at 2-6 weeks after the imidazolinone-tolerant crop is sown.
In this evaluation biomass reduction is determined by visually rating the numbers and bulk of Hordeum leporinum in the treatment plots as compared to the numbers and bulk in the untreated plots. Seedhead suppression is measured by counting the seedheads of Hordeum leporinum in each of the treated plots and comparing to the number of seedheads in the untreated plot.
The test solutions are prepared by tank-mixing commercial formulations. All treatments also contain 0.5% v/v of an ethoxylated vegetable oil.
The treated plots are examined at intervals during the growing season and rated for percent biomass reduction and percent seedhead suppression. The data shown are an average of the replicates for that treatment. The Colby method of analysis is used to determine the resultant biological effect of the combination treatment as compared to the biological effect of each component when applied alone.

Bromus diandrus = experiment: Field plot evaluation of density reduction in Bromus diandrus (great bromegrass); format: in vivo; conditions: 28 g/ha, weed count vs untreated plot
Procedure: as §1
as §2, with “sown. […]” for “sown.”
Using essentially the same procedure and test solutions described in Example 1, the following evaluation is carried out. In this evaluation, density reduction is measured by counting the Bromus diandrus weeds in the treated plots and comparing the count to that of the untreated plot. […]

| SMILES | Seed Head Red. Observed (Hordeum leporinum) | Bio. Red. Observed (Hordeum leporinum) | Density Red. Obs. (Bromus diandrus) |
| --- | --- | --- | --- |
| Cc1cnc(C2=NC(C)(C(C)C)C(=O)N2)c(C(=O)O)c1 (stereo not drawn) [imazapic, 2-(4-isopropyl-4-methyl-5-oxo-2-imidazolin-2-yl)-5-methylnicotinic acid] | 5.55% | 30% | −17.29% |
| COCc1cnc(C2=NC(C)(C(C)C)C(=O)N2)c(C(=O)O)c1 (stereo not drawn) [imazamox, 2-(4-isopropyl-4-methyl-5-oxo-2-imidazolin-2-yl)-5-(methoxymethyl)-nicotinic acid] | 76.33% | 80% | 98.96% |
